Test results from US20220387604A1, “SELECTIVE DUAL HISTONE DEACETYLASE 6/8 (HDAC6/8) DEGRADERS AND METHODS OF USE THEREOF” (DANA-FARBER CANCER INSTITUTE, INC., priority 2019, published 2022).

Molecular target: T1, HDAC6 (Homo sapiens, UniProt Q9UBN7)
T1 construct: purchased Reaction Biology
T1 sequence (Q9UBN7 1-1215): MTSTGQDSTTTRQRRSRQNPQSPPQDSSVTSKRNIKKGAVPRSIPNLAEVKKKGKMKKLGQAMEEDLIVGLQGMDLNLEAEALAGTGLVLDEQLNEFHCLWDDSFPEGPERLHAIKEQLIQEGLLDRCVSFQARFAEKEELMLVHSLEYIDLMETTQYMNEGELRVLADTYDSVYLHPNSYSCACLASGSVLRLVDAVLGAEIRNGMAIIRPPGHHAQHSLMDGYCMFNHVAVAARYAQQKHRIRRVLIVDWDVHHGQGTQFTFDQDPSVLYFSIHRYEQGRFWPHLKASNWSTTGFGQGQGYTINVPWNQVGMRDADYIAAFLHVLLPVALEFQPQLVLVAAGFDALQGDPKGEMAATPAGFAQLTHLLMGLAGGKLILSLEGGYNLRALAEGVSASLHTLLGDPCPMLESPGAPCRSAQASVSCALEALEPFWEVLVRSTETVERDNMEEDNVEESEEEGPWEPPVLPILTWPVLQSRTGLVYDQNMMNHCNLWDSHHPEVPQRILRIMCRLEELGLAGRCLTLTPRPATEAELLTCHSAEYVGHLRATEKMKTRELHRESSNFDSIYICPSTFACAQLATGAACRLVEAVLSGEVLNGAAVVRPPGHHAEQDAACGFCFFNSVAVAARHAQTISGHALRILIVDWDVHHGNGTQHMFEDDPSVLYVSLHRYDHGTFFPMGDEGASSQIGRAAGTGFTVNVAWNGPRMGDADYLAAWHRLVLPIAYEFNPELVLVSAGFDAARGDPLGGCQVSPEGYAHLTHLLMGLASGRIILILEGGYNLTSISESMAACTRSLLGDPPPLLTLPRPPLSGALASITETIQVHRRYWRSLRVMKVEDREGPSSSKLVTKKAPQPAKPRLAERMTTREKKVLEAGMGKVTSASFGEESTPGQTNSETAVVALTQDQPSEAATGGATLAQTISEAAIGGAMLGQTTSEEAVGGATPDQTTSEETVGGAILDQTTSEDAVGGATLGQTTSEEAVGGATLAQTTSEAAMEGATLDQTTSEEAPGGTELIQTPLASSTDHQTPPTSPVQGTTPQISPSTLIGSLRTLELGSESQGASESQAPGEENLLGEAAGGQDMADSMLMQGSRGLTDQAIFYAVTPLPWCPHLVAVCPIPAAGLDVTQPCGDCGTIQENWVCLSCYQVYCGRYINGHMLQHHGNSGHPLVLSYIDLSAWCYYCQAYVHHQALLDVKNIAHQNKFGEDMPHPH
Assay: HDAC enzymatic assay (Reaction Biology), HDAC6
Assay type: biochemical
Conditions: 10-dose response curve; read-out: Compound IC50 (M), HDAC6
Method: Compound 1 was tested in an enzymatic assay from Reaction Biology® against 10 HDAC isoforms. The IC50 values were derived from a 10-dose response curve.
Base Reaction buffer: 50 mM Tris-HCl, pH8.0, 137 mM NaCl, 2.7 mM KCl, and 1 mM MgCl2, Add fresh: 1 mg/ml BSA, 1% DMSO
Fluorogenic HDAC General Substrate (HDAC1, HDAC2, HDAC3, HDAC6, HDAC10, and HDAC11): 50 μM, Arg-His-Lys-Lys(Ac)-AMC
1. Delivered 2× enzyme in wells of reaction plate except in the control wells and added buffer to control wells. 2. Delivered compounds in 100% DMSO into the enzyme mixture by Acoustic technology (Echo550; nanoliter range). Spin down and pre-incubation. 3. Delivered 2× Substrate Mixture (Fluorogenic HDAC Substrate and co-factor if applicable) in all reaction wells to initiate the reaction. Spin and shake. 4. Incubated for 30 min for Class 2A, 1 h for HDAC1, 2, 3, and 6, and 2 h for the rest of HDAC isoforms and SIRTs at 30° C. with seal.
5. Added Developer with Trichostatin A (or Nicotinamide for SIRTs) to stop the reaction and to generate fluorescent color. 6. The fluorescence that was generated was detected with excitation (Ex) at […] and emission (Em) at 460 nM by the EnVision Multilabel Plate Reader (PerkinElmer®, Santa Clara, Calif., USA).
IC50 values were derived from a 10-dose response curve.

## O=C(/C=C/c1ccc(CN(CCOCCOCCNc2cccc3c2C(=O)N(C2CCC(=O)NC2=O)C3=O)CCc2c[nH]c3ccccc23)cc1)NO (stereo not shown) [Compound 1, (E)-3-(4-(((2-(1H-indol-3-yl)ethyl)(2-(2-(2-((2-(2,6-dioxopiperidin-3-yl)-1,3-dioxoisoindolin-4-yl)amino)ethoxy)ethoxy)ethyl)amino)methyl)phenyl)-N-hydroxyacrylamide]
  IC50: 1.6e-07 M
